# Test results reported in PubChem BioAssay (NCI).
#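 Results reflect a 48-hour exposure of cells in 96-well plates to compound at five concentrations. Here, GI50 denotes the concentration required for 50% inhibition of growth. TGI: concentration producing complete growth inhibition.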
# Legend:
# Test in all cases: NCI-60 cell line screen, 48 h
# SK-MEL-2 melanoma = system: SK-MEL-2 melanoma
# ACHN renal = system: ACHN renal
# SK-MEL-28 melanoma = system: SK-MEL-28 melanoma
# NCI-H23 lung = system: NCI-H23 lung
# BT-549 breast = system: BT-549 breast
# MCF7 breast = system: MCF7 breast
# A498 renal = system: A498 renal
# NCI/ADR-RES ovarian = system: NCI/ADR-RES ovarian
# NCI-H460 lung = system: NCI-H460 lung
# 786-0 renal = system: 786-0 renal
# SR leukemia = system: SR leukemia
# OVCAR-3 ovarian = system: OVCAR-3 ovarian
# SF-539 CNS = system: SF-539 CNS
# HCC-2998 colon = system: HCC-2998 colon
# K-562 leukemia = system: K-562 leukemia
# MDA-MB-435 = system: MDA-MB-435
# SF-295 CNS = system: SF-295 CNS
# OVCAR-5 ovarian = system: OVCAR-5 ovarian
# CCRF-CEM leukemia = system: CCRF-CEM leukemia
# MDA-MB-231 breast = system: MDA-MB-231 breast
# HOP-92 NSCLC = system: HOP-92 NSCLC
# SN12C renal = system: SN12C renal
# HCT-116 colon = system: HCT-116 colon
# IGROV1 ovarian = system: IGROV1 ovarian
# MALME-3M melanoma = system: MALME-3M melanoma
# OVCAR-8 ovarian = system: OVCAR-8 ovarian
# UO-31 renal = system: UO-31 renal
# NCI-H226 lung = system: NCI-H226 lung
# LOX IMVI melanoma = system: LOX IMVI melanoma
# RXF 393 renal = system: RXF 393 renal
# COLO 205 colon = system: COLO 205 colon
# HT29 colon = system: HT29 colon
# A549 NSCLC = system: A549 NSCLC
# KM12 colon = system: KM12 colon
# OVCAR-4 ovarian = system: OVCAR-4 ovarian
# SNB-75 CNS = system: SNB-75 CNS
# M14 melanoma = system: M14 melanoma
# MOLT-4 leukemia = system: MOLT-4 leukemia
# RPMI-8226 leukemia = system: RPMI-8226 leukemia
# EKVX NSCLC = system: EKVX NSCLC
# SK-OV-3 ovarian = system: SK-OV-3 ovarian
# UACC-257 melanoma = system: UACC-257 melanoma
# SK-MEL-5 melanoma = system: SK-MEL-5 melanoma
# HL-60(TB) leukemia = system: HL-60(TB) leukemia
# TK-10 renal = system: TK-10 renal
# NCI-H522 lung = system: NCI-H522 lung
# HCT-15 colon = system: HCT-15 colon
# SF-268 CNS = system: SF-268 CNS
# U251 CNS = system: U251 CNS
# UACC-62 melanoma = system: UACC-62 melanoma
# PC-3 prostate = system: PC-3 prostate
# SW-620 colon = system: SW-620 colon
# SNB-19 CNS = system: SNB-19 CNS
# HS 578T breast = system: HS 578T breast
# HOP-62 NSCLC = system: HOP-62 NSCLC
# T-47D breast = system: T-47D breast
smiles,measurement,setting,value
C/C=C\C(=O)O[C@@H]1CC2O[C@@H]3C=C(C)C(=O)C[C@]3(C)[C@]1(C)[C@]21CO1,GI50,SK-MEL-2 melanoma,0.468 µM
same,TGI,SK-MEL-2 melanoma,1.48 µM
same,GI50,ACHN renal,0.642 µM
same,TGI,ACHN renal,2.77 µM
same,GI50,SK-MEL-28 melanoma,0.471 µM
same,TGI,SK-MEL-28 melanoma,1.56 µM
same,GI50,NCI-H23 lung,0.587 µM
same,TGI,NCI-H23 lung,2.14 µM
same,GI50,BT-549 breast,0.699 µM
same,TGI,BT-549 breast,1.92 µM
same,GI50,MCF7 breast,0.459 µM
same,TGI,MCF7 breast,14.9 µM
same,GI50,A498 renal,0.676 µM
same,TGI,A498 renal,2.38 µM
same,GI50,NCI/ADR-RES ovarian,0.783 µM
same,TGI,NCI/ADR-RES ovarian,8.3 µM
same,GI50,NCI-H460 lung,0.668 µM
same,TGI,NCI-H460 lung,4.4 µM
same,GI50,786-0 renal,0.615 µM
same,TGI,786-0 renal,3.37 µM
same,GI50,SR leukemia,0.67 µM
same,TGI,SR leukemia,3.04 µM
same,GI50,OVCAR-3 ovarian,0.783 µM
same,TGI,OVCAR-3 ovarian,3.08 µM
same,GI50,SF-539 CNS,0.622 µM
same,TGI,SF-539 CNS,1.54 µM
same,GI50,HCC-2998 colon,0.769 µM
same,TGI,HCC-2998 colon,2.72 µM
same,GI50,K-562 leukemia,0.507 µM
same,TGI,K-562 leukemia,4.48 µM
same,GI50,MDA-MB-435,0.66 µM
same,TGI,MDA-MB-435,2.67 µM
same,GI50,SF-295 CNS,0.715 µM
same,TGI,SF-295 CNS,4.77 µM
same,GI50,OVCAR-5 ovarian,0.796 µM
same,TGI,OVCAR-5 ovarian,3.82 µM
same,GI50,CCRF-CEM leukemia,0.422 µM
same,TGI,CCRF-CEM leukemia,25 µM
same,GI50,MDA-MB-231 breast,0.604 µM
same,TGI,MDA-MB-231 breast,2.03 µM
same,GI50,HOP-92 NSCLC,0.538 µM
same,TGI,HOP-92 NSCLC,1.89 µM
same,GI50,SN12C renal,0.643 µM
same,TGI,SN12C renal,3.89 µM
same,GI50,HCT-116 colon,0.429 µM
same,TGI,HCT-116 colon,2.63 µM
same,GI50,IGROV1 ovarian,0.842 µM
same,TGI,IGROV1 ovarian,6.44 µM
same,GI50,MALME-3M melanoma,0.612 µM
same,TGI,MALME-3M melanoma,2.37 µM
same,GI50,OVCAR-8 ovarian,0.756 µM
same,TGI,OVCAR-8 ovarian,5.49 µM
same,GI50,UO-31 renal,0.712 µM
same,TGI,UO-31 renal,4.31 µM
same,GI50,NCI-H226 lung,0.648 µM
same,TGI,NCI-H226 lung,4.36 µM
same,GI50,LOX IMVI melanoma,0.209 µM
same,TGI,LOX IMVI melanoma,1.64 µM
same,GI50,RXF 393 renal,0.499 µM
same,TGI,RXF 393 renal,1.62 µM
same,GI50,COLO 205 colon,0.459 µM
same,TGI,COLO 205 colon,1.16 µM
same,GI50,HT29 colon,0.534 µM
same,TGI,HT29 colon,2.33 µM
same,GI50,A549 NSCLC,0.795 µM
same,TGI,A549 NSCLC,10.3 µM
same,GI50,KM12 colon,0.567 µM
same,TGI,KM12 colon,5.55 µM
same,GI50,OVCAR-4 ovarian,0.632 µM
same,TGI,OVCAR-4 ovarian,1.93 µM
same,GI50,SNB-75 CNS,0.47 µM
same,TGI,SNB-75 CNS,1.96 µM
same,GI50,M14 melanoma,0.431 µM
same,TGI,M14 melanoma,0.962 µM
same,GI50,MOLT-4 leukemia,0.581 µM
same,TGI,MOLT-4 leukemia,2.24 µM
same,GI50,RPMI-8226 leukemia,0.522 µM
same,TGI,RPMI-8226 leukemia,1.5 µM
same,GI50,EKVX NSCLC,0.873 µM
same,TGI,EKVX NSCLC,5.7 µM
same,GI50,SK-OV-3 ovarian,0.896 µM
same,TGI,SK-OV-3 ovarian,6.56 µM
same,GI50,UACC-257 melanoma,0.599 µM
same,TGI,UACC-257 melanoma,2.11 µM
same,GI50,SK-MEL-5 melanoma,0.528 µM
same,TGI,SK-MEL-5 melanoma,1.37 µM
same,GI50,HL-60(TB) leukemia,0.522 µM
same,TGI,HL-60(TB) leukemia,1.35 µM
same,GI50,TK-10 renal,0.664 µM
same,TGI,TK-10 renal,2.5 µM
same,GI50,NCI-H522 lung,0.486 µM
same,TGI,NCI-H522 lung,1.62 µM
same,GI50,HCT-15 colon,0.671 µM
same,TGI,HCT-15 colon,16.5 µM
same,GI50,SF-268 CNS,0.743 µM
same,TGI,SF-268 CNS,5.45 µM
same,GI50,U251 CNS,0.648 µM
same,TGI,U251 CNS,5.6 µM
same,GI50,UACC-62 melanoma,0.653 µM
same,TGI,UACC-62 melanoma,2.42 µM
same,GI50,PC-3 prostate,0.799 µM
same,TGI,PC-3 prostate,8.12 µM
same,GI50,SW-620 colon,0.634 µM
same,TGI,SW-620 colon,6.28 µM
same,GI50,SNB-19 CNS,0.565 µM
same,TGI,SNB-19 CNS,3.33 µM
same,GI50,HS 578T breast,0.723 µM
same,TGI,HS 578T breast,2.31 µM
same,GI50,HOP-62 NSCLC,0.639 µM
same,TGI,HOP-62 NSCLC,1.98 µM
same,GI50,T-47D breast,0.529 µM
same,TGI,T-47D breast,1.97 µM
